Measurements reported in patent US8093221B2, “Cosmetic and pharmaceutical compositions comprising lauroyl proline and an ester of anhydrohexitol and of an aliphatic carboxylic acid” (Societe d'Exploitation de Produits pour les Industries …, priority 2005, dated 2012).

Experiment: Tests for dissolving the composition in liquid media (water, liquid paraffin, propylene glycol)
Format: physicochemical
Settings: 0.75% by mass of N-lauroyl proline (Composition 3 at 3% by mass)
Method: Composition 3 prepared in the above paragraph is dissolved in water, in liquid paraffin and in propylene glycol, at a proportion of 3% by mass, which corresponds to 0.75% by mass of N-lauroyl proline.

Temperature at which dispersible in liquid paraffin (liquid paraffin): dispersible at 70 °C | Temperature at which dispersible in propylene glycol (propylene glycol): dispersible at 60 °C | Temperature at which dispersible in water (water): dispersible at 80 °C
Structure (SMILES): CCCCCCCCCCCC(=O)N1CCC[C@H]1C(=O)O [Pure N-lauroyl proline, N-lauroyl proline]
